Measurements from ChEMBL document CHEMBL1135808, “A new type of mixed anhydride and its applications to the synthesis of 7-substituted 8-chloro-5,5-dioxoimidazo[1,2-b][1,4,2]benzodithiazines with in vitro antitumor activity” (2002).

Assays:
NCI-H23 [1] = assay: In vitro total growth inhibition against non-small-cell lung cancer NCI-H23 cell lines was reported.; type: functional; details: Homo sapiens, read-out: Log TGI (converted)
K562 = assay: In vitro total growth inhibition against leukemia K-562 cell lines was reported.; type: functional; details: Homo sapiens, read-out: Log TGI (converted)
HT-29 [2] = assay: In vitro total growth inhibition against colon cancer HT-29 cell lines was reported.; type: functional; details: Homo sapiens, read-out: Log TGI (converted)
NCI-H46 = assay: In vitro total growth inhibition against non-small-cell lung cancer […] cell lines was reported.; type: functional; details: Homo sapiens, read-out: Log TGI (converted)
SK-MEL-28 = assay: In vitro total growth inhibition against melanoma SK-MEL-28 cell lines was reported.; type: functional; details: Homo sapiens, read-out: Log TGI (converted)
LOX IMVI [3] = assay: In vitro growth inhibition against melanoma LOX IMVI cell line was reported.; type: functional; details: Homo sapiens
NCI-H226 [4] = assay: In vitro total growth inhibition against non-small-cell lung cancer NCI-H226 cell lines was reported.; type: functional; details: Homo sapiens, read-out: Log TGI (converted)
HOP-62 [5] = assay: In vitro growth inhibition against non-small-cell lung cancer HOP-62 cell line was reported.; type: functional; details: Homo sapiens
NCI-H522 [6] = assay: In vitro total growth inhibition against non-small-cell lung cancer NCI-522 cell lines was reported.; type: functional; details: Homo sapiens, read-out: Log TGI (converted)
U-251 [7] = assay: Log of molar concentration leading to 50% cell death against CNS cancer U251 cell line was reported; type: functional; details: Homo sapiens, read-out: Log LC50 (the source's name) (converted)
OVCAR-4 = assay: In vitro total growth inhibition against ovarian cancer OVCAR-4 cell lines was reported.; type: functional; details: Homo sapiens, read-out: Log TGI (converted)
HL-60 [8] = assay: Log of molar concentration leading to 50% cell death against leukemia HL-60(TB) cell line was reported; type: functional; details: Homo sapiens, read-out: Log LC50 (the source's name) (converted)
RPMI-8226 [9] = assay: In vitro growth inhibition against leukemia […] cell line was reported.; type: functional; details: Homo sapiens
SNB-19 = assay: In vitro growth inhibition against CNS cancer SNB-19 cell line was reported.; type: functional; details: Homo sapiens
ACHN [10] = assay: In vitro growth inhibition against renal cancer ACHN cell line was reported.; type: functional; details: Homo sapiens
U-251 [11] = assay: In vitro growth inhibition against CNS cancer U251 cell line was reported.; type: functional; details: Homo sapiens
MDA-MB-435 = assay: In vitro total growth inhibition against breast cancer MDA-MB-435 cell lines was reported.; details: Homo sapiens, read-out: Log TGI (converted)
CAKI-1 = assay: In vitro growth inhibition against renal cancer CAKI-1 cell line was reported.; type: functional; details: Homo sapiens
NCI-H522 [12] = assay: Log of molar concentration leading to 50% cell death against non-small-cell lung cancer NCI-522 cell line was reported; type: functional; details: Homo sapiens, read-out: Log LC50 (the source's name) (converted)
SR [13] = assay: In vitro growth inhibition against leukemia SR cell line was reported.; type: functional; details: Homo sapiens
SF-295 = assay: In vitro growth inhibition against CNS cancer SF-295 cell line was reported.; type: functional; details: Homo sapiens
SK-MEL-2 = assay: In vitro total growth inhibition against melanoma SK-MEL-2 cell lines was reported.; type: functional; details: Homo sapiens, read-out: Log TGI (converted)
Hs-578T = assay: In vitro growth inhibition against breast cancer HS 578T cell line was reported.; type: functional; details: Homo sapiens
MDA-MB-231 = assay: In vitro growth inhibition against breast cancer MDA-MB-231/ATCC cell line was reported.; type: functional; details: Homo sapiens
RPMI-8226 [14] = assay: Log of molar concentration leading to 50% cell death against leukemia […] cell line was reported; type: functional; details: Homo sapiens, read-out: Log LC50 (the source's name) (converted)
UO-31 = assay: In vitro total growth inhibition against renal cancer UO-31 cell lines was reported.; type: functional; details: Homo sapiens, read-out: Log TGI (converted)
HOP-92 = assay: In vitro growth inhibition against non-small-cell lung cancer HOP-92 cell line was reported.; type: functional; details: Homo sapiens
DU-145 [15] = assay: In vitro total growth inhibition against prostate cancer […] cell lines was reported.; type: functional; details: Homo sapiens, read-out: Log TGI (converted)
NCI-H23 [16] = assay: In vitro growth inhibition against non-small-cell lung cancer NCI-H23 cell line was reported.; type: functional; details: Homo sapiens
NCI-H226 [17] = assay: In vitro growth inhibition against non-small-cell lung cancer NCI-H226 cell line was reported.; type: functional; details: Homo sapiens
M14 [18] = assay: In vitro total growth inhibition against melanoma M14 cell lines was reported.; type: functional; details: Homo sapiens, read-out: Log TGI (converted)
MCF7 [19] = assay: Log of molar concentration leading to 50% cell death against breast cancer MCF 7 cell line was reported; type: functional; details: Homo sapiens, read-out: Log LC50 (the source's name) (converted)
UACC-257 = assay: In vitro total growth inhibition against melanoma UACC-257 cell lines was reported.; type: functional; details: Homo sapiens, read-out: Log TGI (converted)
MDA-N = assay: In vitro total growth inhibition against breast cancer MDA-N cell lines was reported.; type: functional; details: Homo sapiens, read-out: Log TGI (converted)
M14 [20] = assay: Log of molar concentration leading to 50% cell death against melanoma M14 cell line was reported; type: functional; details: Homo sapiens, read-out: Log LC50 (the source's name) (converted)
HL-60 [21] = assay: In vitro growth inhibition against leukemia HL-60(TB) cell line was reported.; type: functional; details: Homo sapiens
UACC-62 = assay: In vitro total growth inhibition against melanoma UACC-62 cell lines was reported.; type: functional; details: Homo sapiens, read-out: Log TGI (converted)
HCC 2998 [22] = assay: In vitro growth inhibition against colon cancer HCC2998 cell line was reported.; type: functional; details: Homo sapiens
ACHN [23] = assay: In vitro total growth inhibition against renal cancer ACHN cell lines was reported.; type: functional; details: Homo sapiens, read-out: Log TGI (converted)
HCT-15 = assay: In vitro growth inhibition against colon cancer […] cell line was reported.; type: functional; details: Homo sapiens
RXF 393 [24] = assay: Log of molar concentration leading to 50% cell death against renal cancer RXF 393 cell line was reported; type: functional; details: Homo sapiens, read-out: Log LC50 (the source's name) (converted)
HCC 2998 [25] = assay: Log of molar concentration leading to 50% cell death against colon cancer HCC2998 cell line was reported; type: functional; details: Homo sapiens, read-out: Log LC50 (the source's name) (converted)
Tumor Cell line [26] = assay: Log of molar concentration leading to 50% cell death was reported; type: functional; details: Homo sapiens, read-out: Log LC50 (the source's name) (converted)
PC-3 = assay: Log of molar concentration leading to 50% cell death against prostate cancer PC-3 cell line was reported; type: functional; details: Homo sapiens, read-out: Log LC50 (the source's name) (converted)
SF-539 = assay: In vitro growth inhibition against CNS cancer SF-539 cell line was reported.; type: functional; details: Homo sapiens
IGROV-1 = assay: Log of molar concentration leading to 50% cell death against ovarian cancer IGROV1 cell line was reported; type: functional; details: Homo sapiens, read-out: Log LC50 (the source's name) (converted)
HT-29 [27] = assay: In vitro growth inhibition against colon cancer HT-29 cell line was reported.; type: functional; details: Homo sapiens
Malme-3M = assay: In vitro growth inhibition against melanoma MALME 3M cell line was reported.; type: functional; details: Homo sapiens
DU-145 [28] = assay: Log of molar concentration leading to 50% cell death against prostate cancer […] cell line was reported; type: functional; details: Homo sapiens, read-out: Log LC50 (the source's name) (converted)
SR [29] = assay: In vitro total growth inhibition against leukemia SR cell lines was reported.; type: functional; details: Homo sapiens, read-out: Log TGI (converted)
RXF 393 [30] = assay: In vitro growth inhibition against renal cancer RXF 393 cell line was reported.; type: functional; details: Homo sapiens
786-0 [31] = assay: Log of molar concentration leading to 50% cell death against renal cancer […] cell line was reported; type: functional; details: Homo sapiens, read-out: Log LC50 (the source's name) (converted)
786-0 [32] = assay: In vitro total growth inhibition against renal cancer […] cell lines was reported.; type: functional; details: Homo sapiens, read-out: Log TGI (converted)
CCRF-CEM = assay: In vitro growth inhibition against leukemia CCRF-CEM cell line was reported.; type: functional; details: Homo sapiens
NCI-H322M = assay: Log of molar concentration leading to 50% cell death against non-small-cell lung cancer NCI-H322M cell line was reported; type: functional; details: Homo sapiens, read-out: Log LC50 (the source's name) (converted)
MCF7 [33] = assay: In vitro total growth inhibition against breast cancer MCF 7 cell lines was reported.; type: functional; details: Homo sapiens, read-out: Log TGI (converted)
HOP-62 [34] = assay: In vitro total growth inhibition against non-small-cell lung cancer HOP-62 cell lines was reported.; type: functional; details: Homo sapiens, read-out: Log TGI (converted)
LOX IMVI [35] = assay: In vitro total growth inhibition against melanoma LOX IMVI cell lines was reported.; type: functional; details: Homo sapiens, read-out: Log TGI (converted)
OVCAR-8 = assay: In vitro growth inhibition against ovarian cancer OVCAR-8 cell line was reported.; type: functional; details: Homo sapiens
A549 = assay: In vitro growth inhibition against non-small-cell lung cancer A 549/ATCC cell line was reported.; type: functional; details: Homo sapiens
Tumor Cell line [36] = assay: In vitro total growth inhibition for 50 cell lines was reported as log of molar concentration; type: functional, Homo sapiens

Cc1ccc2cccc(NC(=O)c3cc4c(cc3Cl)Sc3nccn3S4(=O)=O)c2n1
TGI (NCI-H23 [1]): 56.2 µM
TGI (K562): 38 µM
TGI (HT-29 [2]): 56.2 µM
TGI (NCI-H46): 7.76 µM
TGI (SK-MEL-28): 26.9 µM
GI50 (LOX IMVI [3]): 5.01 µM
TGI (NCI-H226 [4]): 57.5 µM
GI50 (HOP-62 [5]): 0.049 µM
TGI (NCI-H522 [6]): 26.3 µM
CC50 (U-251 [7]): 38 µM
TGI (OVCAR-4): 24.5 µM
CC50 (HL-60 [8]): 3.8 µM
GI50 (RPMI-8226 [9]): 1.7 µM
GI50 (SNB-19): 10.2 µM
GI50 (ACHN [10]): 8.51 µM
GI50 (U-251 [11]): 3.47 µM
TGI (MDA-MB-435): 22.9 µM
GI50 (CAKI-1): 23.4 µM
CC50 (NCI-H522 [12]): 66.1 µM
GI50 (SR [13]): 2.24 µM
GI50 (SF-295): 11.5 µM
TGI (SK-MEL-2): 32.4 µM
GI50 (Hs-578T): 13.5 µM
GI50 (MDA-MB-231): 11.5 µM
CC50 (RPMI-8226 [14]): 8.51 µM
TGI (UO-31): 42.7 µM
GI50 (HOP-92): 14.5 µM
TGI (DU-145 [15]): 17.8 µM
GI50 (NCI-H23 [16]): 13.8 µM
GI50 (NCI-H226 [17]): 15.1 µM
TGI (M14 [18]): 22.9 µM
CC50 (MCF7 [19]): 38.9 µM
TGI (UACC-257): 26.9 µM
TGI (MDA-N): 91.2 µM
CC50 (M14 [20]): 57.5 µM
GI50 (HL-60 [21]): 0.01 µM
TGI (UACC-62): 30.9 µM
GI50 (HCC 2998 [22]): 1.82 µM
TGI (ACHN [23]): 33.9 µM
GI50 (HCT-15): 4.79 µM
CC50 (RXF 393 [24]): 64.6 µM
CC50 (HCC 2998 [25]): 14.5 µM
CC50 (Tumor Cell line [26]): 91.2 µM
CC50 (PC-3): 32.4 µM
GI50 (SF-539): 1.82 µM
CC50 (IGROV-1): 23.4 µM
GI50 (HT-29 [27]): 9.55 µM
GI50 (Malme-3M): 17 µM
CC50 (DU-145 [28]): 42.7 µM
TGI (SR [29]): 5.89 µM
GI50 (RXF 393 [30]): 9.55 µM
CC50 (786-0 [31]): 91.2 µM
TGI (786-0 [32]): 38 µM
GI50 (CCRF-CEM): 2.51 µM
CC50 (NCI-H322M): 50.1 µM
TGI (MCF7 [33]): 14.8 µM
TGI (HOP-62 [34]): 16.2 µM
TGI (LOX IMVI [35]): 18.2 µM
GI50 (OVCAR-8): 3.8 µM
GI50 (A549): 12.3 µM
Log GTI (Tumor Cell line [36]): -4.01
